Consider 48 compounds from patent US7244692B2, “Substituted benzoylcyclohexane diones for use as herbicides” (Bayer Aktiengesellschaft, priority 1999, dated 2007).

Series [1] is described as follows: logP determination by HPLC, reverse-phase column (C 18), EEC Directive 79/831 Annex V.A8. Format: physicochemical. The procedure:
Temperature: 43° C. • (a) Mobile phases for the determination in the acidic range: 0.1% aqueous phosphoric acid, acetonitrile; linear gradient from 10% acetonitrile to 90% acetonitrile—the corresponding test results in Table 1 are labelled ^a). • (b) Mobile phases for the determination in the neutral range: 0.01 molar aqueous phosphate buffer solution, acetonitrile; linear gradient from 10% acetonitrile to 90% acetonitrile—the corresponding test results in Table 1 are labelled ^b).

The subject of series [2] is weeds. The series can be described thus: Pre-Emergence Test (Example A). In kind it is in vivo. The conditions noted are these: soil sprayed 24 hours after sowing, rated after three weeks. The procedure: (§1) • Solvent: 5 parts by weight of acetone • Emulsifier: 1 part by weight of alkylaryl polyglycol ether
(§2) To produce a suitable preparation of active compound, 1 part by weight of active compound is mixed with the stated amount of solvent, the stated amount of emulsifier is added and the concentrate is diluted with water to the desired concentration.
Seeds of the test plants are sown in normal soil. After 24 hours, the soil is sprayed with the preparation of active compound such that the particular amount of active compound desired is applied per unit area. The concentration of active compound in the spray liquor is chosen such that the particular amount of active compound desired is applied in 1000 litres of water per hectare.
After three weeks, the degree of damage to the plants is rated in % damage in comparison to the development of the untreated control. The figures denote: • 0%=no effect (like untreated control) • 100%=total destruction

The subject of series [3] is weeds. The series can be described thus: Post-Emergence Test (Example B). The conditions noted are these: test plants of 5-15 cm sprayed, rated after three weeks. In kind it is in vivo. The procedure: as §1, §2
Test plants of a height of 5-15 cm are sprayed with the preparation of active compound such that the particular amounts of active compound desired are applied per unit area. The concentration of the spray liquor is chosen such that the particular amounts of active compound desired are applied in 1000 l of water/ha.
After three weeks, the degree of damage to the plants is rated in % damage in comparison to the development of the untreated control.
The figures denote: • 0%=no effect (like untreated control) • 100%=total destruction

The mark [4] stands for this setting: labelled a): acidic range, 0.1% aqueous phosphoric acid/acetonitrile, linear gradient 10% to 90% acetonitrile, 43° C.
Where [5] appears, read: no a)/b) label printed, mobile phase not given.

Read-outs that look alike come from different tables or passages of the source.

In the case of `CCCN1CCNC1=O` [(VI-5)], in series [1], the logP is on record as 0.55^a). Same read-out and setting: in the case of `CCCN1CCCNC1=O` [(VI-15)] it was “logP = 0.76^a)”.

Take `CCN1CCCCNC1=O` [(VI-30)]: in series [1], the logP entry is listed as “logP = 1.09”.

Regarding `CN1CCN(Cc2c(Cl)ccc(C(=O)C3C(=O)CCCC3=O)c2Cl)C1=O` [Example 1, 2-[2,4-dichloro-3-[(3-methyl-2-oxo-imidazolidin-1-yl)-methyl]-benzoyl]-1,3-cyclohexanedione], the “activity against weeds (degree of damage)” value (“activity against weeds” below) with weeds [2] and in the series with weeds [3] was “strong activity against weeds” each time. As for `CC1CC(=O)C(C(=O)c2ccc(Cl)c(CN3CCCN(C)C3=O)c2Cl)C(=O)C1` (stereo not shown) [Example 2], in series [1] (setting [4]), the logP result was “logP = 2.55^a)”. Further, the “activity against weeds” value in the series with weeds [2] and in the series with weeds [3] was “strong activity against weeds” in each case. As for `CN1CCCN(Cc2c(Cl)ccc(C(=O)C3C(=O)CC(C)(C)CC3=O)c2Cl)C1=O` [Example 3], the logP entry in series [1] (setting [4]) is on record as “logP = 2.79^a)”. In addition, the “activity against weeds” value with weeds [2] and with weeds [3] was “strong activity against weeds” throughout.

On to `CN1CCCN(Cc2c(Cl)ccc(C(=O)C3C(=O)CCC(C)(C)C3=O)c2Cl)C1=O` (stereo not shown) [Example 4], for which the logP result in series [1] (setting [4]) was “logP = 2.89^a)”. Further, the “activity against weeds” value with weeds [2] and in the series on weeds [3] was “strong activity against weeds” in each case. As for `CC(C)C1CC(=O)C(C(=O)c2ccc(Cl)c(CN3CCCN(C)C3=O)c2Cl)C(=O)C1` (stereo not shown) [Example 5], the logP result in series [1] (setting [4]) is “logP = 3.22^a)”. Also, the “activity against weeds” value in the series on weeds [3] was “strong activity against weeds”. `CN1CCCN(Cc2c(Cl)ccc(C(=O)C3C(=O)CC(c4ccccc4)CC3=O)c2Cl)C1=O` (stereo not shown) [Example 6]: the logP result in series [1] (setting [4]) is “logP = 3.21^a)”. Further, in the series with weeds [3], the “activity against weeds” value is given as “strong activity against weeds”. As to `CC1CC(=O)C(C(=O)c2ccc(Cl)c(CN3CCN(C)C3=O)c2Cl)C(=O)C1` (stereo not shown) [Example 7], in series [1] (setting [4]), the logP entry is on record as “logP = 2.43^a)”. Besides, the “activity against weeds” value in the series with weeds [2] and in the series with weeds [3] was “strong activity against weeds” in each case. For `CN1CCN(Cc2c(Cl)ccc(C(=O)C3C(=O)CC(C)(C)CC3=O)c2Cl)C1=O` [Example 8], the logP result in series [1] (setting [4]) is reported as “logP = 2.67^a)”. Besides, the “activity against weeds” value with weeds [2] and in the series on weeds [3] was “strong activity against weeds” throughout. For `CN1CCN(Cc2c(Cl)ccc(C(=O)C3C(=O)CCC(C)(C)C3=O)c2Cl)C1=O` (stereo not shown) [Example 9], the logP entry in series [1] (setting [4]) was “logP = 2.75^a)”. Besides, the “activity against weeds” value in the series with weeds [2] and in the series on weeds [3] was “strong activity against weeds” each time. For `CC(C)C1CC(=O)C(C(=O)c2ccc(Cl)c(CN3CCN(C)C3=O)c2Cl)C(=O)C1` (stereo not shown) [Example 10], the logP entry in series [1] (setting [4]) is on record as “logP = 3.09^a)”. The “activity against weeds” value with weeds [3] is recorded as “strong activity against weeds”.

Regarding `CN1CCN(Cc2c(Cl)ccc(C(=O)C3C(=O)CC(c4ccccc4)CC3=O)c2Cl)C1=O` (stereo not shown) [Example 11], the logP result in series [1] (setting [4]) was “logP = 3.10^a)”. Also, in the series with weeds [3], the “activity against weeds” value is “strong activity against weeds”. Consider `CCN1CCN(Cc2c(Cl)ccc(C(=O)C3C(=O)CC(C)CC3=O)c2Cl)C1=O` (stereo not shown) [Example 12], for which, in series [1] (setting [4]), the logP entry is given as “logP = 2.71^a)”. Also, the “activity against weeds” value in the series on weeds [2] and in the series on weeds [3] was “strong activity against weeds” each time. On to `CCN1CCN(Cc2c(Cl)ccc(C(=O)C3C(=O)CCCC3=O)c2Cl)C1=O` [Example 13], for which the logP result in series [1] (setting [4]) is reported as “logP = 2.37^a)”. Moreover, the “activity against weeds” value with weeds [2] and in the series on weeds [3] was “strong activity against weeds” throughout. As for `CCN1CCN(Cc2c(Cl)ccc(C(=O)C3C(=O)CC(C)(C)CC3=O)c2Cl)C1=O` [Example 14], in series [1] (setting [4]), the logP entry is on record as “logP = 2.96^a)”. In addition, the “activity against weeds” value with weeds [3] is recorded as “strong activity against weeds”. Take `CCN1CCN(Cc2c(Cl)ccc(C(=O)C3C(=O)CCC(C)(C)C3=O)c2Cl)C1=O` (stereo not shown) [Example 15]: the logP result in series [1] was “logP = 3.07^a)”. As for `CCN1CCN(Cc2c(Cl)ccc(C(=O)C3C(=O)CC(C(C)C)CC3=O)c2Cl)C1=O` (stereo not shown) [Example 16], the logP result in series [1] (setting [4]) is “logP = 3.40^a)”. For the same compound, in the series on weeds [3], the “activity against weeds” value is “strong activity against weeds”. The matching figures for `CCN1CCN(Cc2c(Cl)ccc(C(=O)C3C(=O)CC(c4ccccc4)CC3=O)c2Cl)C1=O` (stereo not shown) [Example 17]: “logP = 3.38^a)” and “strong activity against weeds”. Turning to `COc1c(C(=O)C2C(=O)CCCC2=O)ccc(Cl)c1CN1CCCN(C)C1=O` [Example 18], the logP entry in series [1] (setting [4]) was “logP = 2.05^a)”. Moreover, the “activity against weeds” value with weeds [2] and with weeds [3] was “strong activity against weeds” each time. With `COc1c(C(=O)C2C(=O)CCCC2=O)ccc(Cl)c1CN1CCN(C)C1=O` [Example 19], the logP result in series [1] is “logP = 2.00^a)”. In the case of `CN1CCN(Cc2c(Cl)ccc(C(=O)C3C(=O)CC4(CCC4)CC3=O)c2Cl)C1=O` [Example 20], in series [1], the logP result is given as “logP = 2.83^a)”. Consider `CCN1CCN(Cc2c(Cl)ccc(C(=O)C3C(=O)CC4(CCC4)CC3=O)c2Cl)C1=O` [Example 21], for which the logP result in series [1] was “logP = 3.15^a)”. For the compound `CN1CCN(Cc2c(S(C)(=O)=O)ccc(C(=O)C3C(=O)CCCC3=O)c2Cl)C1=O` [Example 22], the logP entry in series [1] is given as “logP = 1.70^a)”. The same measure, in the same setting: in the case of `CCN1CCN(Cc2c(S(C)(=O)=O)ccc(C(=O)C3C(=O)CCCC3=O)c2Cl)C1=O` [Example 23] it was “logP = 1.91^a)”.

With `CN1CCN(Cc2c(F)ccc(C(=O)C3C(=O)CCCC3=O)c2Cl)C1=O` [Example 24], in series [1] (setting [4]), the logP result was “logP = 1.96^a)”. The “activity against weeds” value with weeds [2] and in the series with weeds [3] was “strong activity against weeds” throughout. Consider `CCN1CCN(Cc2cc(C(F)(F)F)ccc2C(=O)C2C(=O)CCCC2=O)C1=O` [Example 25], for which the logP result in series [1] is listed as “logP = 2.68^a)”.

For `CN1CCCN(Cc2c(S(C)(=O)=O)ccc(C(=O)C3C(=O)CCCC3=O)c2Cl)C1=O` [Example 41], the logP entry in series [1] is “logP = 1.73^a)”. For `CCCN1CCN(Cc2c(Cl)ccc(C(=O)C3C(=O)CCCC3=O)c2Cl)C1=O` [Example 46], the logP entry in series [1] is “logP = 2.69^a)”.

Turning to `CCCCN1CCN(Cc2c(Cl)ccc(C(=O)C3C(=O)CCCC3=O)c2Cl)C1=O` [Example 47], in series [1], the logP entry is given as “logP = 3.08^a)”. The same measure, in the same setting: in the case of `CC(C)CN1CCN(Cc2c(Cl)ccc(C(=O)C3C(=O)CCCC3=O)c2Cl)C1=O` [Example 48] it was “logP = 3.03^a)”; in that of `CN1CCCN(Cc2cc(C(F)(F)F)ccc2C(=O)C2C(=O)CCCC2=O)C1=O` [Example 49], “logP = 2.59^a)”; in that of `CCN1CCN(Cc2c(F)ccc(C(=O)C3C(=O)CCCC3=O)c2Cl)C1=O` [Example 50], “logP = 2.18^a)”.

`CN1CCN(Cc2cc(C(F)(F)F)ccc2C(=O)C2C(=O)CCCC2=O)C1=O` [Example 51]: the logP entry in series [1] is recorded as “logP = 2.41^a)”.

Turning to `CCN1CCN(Cc2c(Cl)ccc(C(=O)OC)c2Cl)C1=O` [IV-2], in series [1] (setting [4]), the logP result was “logP = 2.26^a)”. Turning to `CCN1CCN(Cc2c(S(C)(=O)=O)ccc(C(=O)OC)c2Cl)C1=O` [IV-3], the logP result in series [1] (setting [4]) is on record as “logP = 1.55^a)”. With `COC(=O)c1ccc(S(C)(=O)=O)c(CN2CCN(C)C2=O)c1Cl` [IV-4], in series [1] (setting [4]), the logP result is recorded as “logP = 1.55^a)”.

As to `COC(=O)c1ccc(Cl)c(CN2CCN(C)C2=O)c1OC` [IV-5], the logP result in series [1] (setting [4]) is recorded as “logP = 1.92^a)”. Take `COC(=O)c1ccc(Cl)c(CN2CCCN(C)C2=O)c1Cl` [IV-6]: the logP entry in series [1] (setting [4]) was “logP = 2.07^a)”. Turning to `COC(=O)c1ccc(Cl)c(CN2CCCN(C)C2=O)c1OC` [IV-10], the logP entry in series [1] (setting [4]) is “logP = 2.03^a)”.

As for `CCN1CCN(Cc2cc(C(F)(F)F)ccc2C(=O)OC)C1=O` [IV-11], in series [1] (setting [4]), the logP entry is given as “logP = 2.62^a)”.

For the compound `CCCN1CCN(Cc2c(Cl)ccc(C(=O)OC)c2Cl)C1=O` [IV-12], in series [1] (setting [5]), the logP entry was “logP = 2.62”. `COC(=O)c1ccc(Cl)c(CN2CCN(C(C)C)C2=O)c1Cl` [IV-13]: in series [1] (setting [5]), the logP entry is on record as “logP = 2.56”. On to `CCCCN1CCN(Cc2c(Cl)ccc(C(=O)OC)c2Cl)C1=O` [IV-15], for which the logP entry in series [1] (setting [5]) is recorded as “logP = 3.0”.

With `COC(=O)c1ccc(Cl)c(CN2CCN(CC(C)C)C2=O)c1Cl` [IV-16], the logP entry in series [1] (setting [5]) is listed as “logP = 2.95”.

For the compound `COC(=O)c1ccc(S(C)(=O)=O)c(CBr)c1Cl` [V-2], the logP result in series [1] is reported as “logP = 2.33^a)”. Same read-out and setting: in the case of `COC(=O)c1ccc(S(C)(=O)=O)cc1CBr` [V-6] it was “logP = 1.87^a)”.
